Common to all, as to format: cell-based
The target in one test is BaF3_HER2WT cells (Homo sapiens, UniProt P04626). Description: Cell growth inhibition assay (CellTiterGlo), BaF3_HER2WT.
The target of the next test is BaF3_HER2YVMA cells (Homo sapiens, UniProt P04626, DUP772-775, cells depend on it). Briefly: Cell growth inhibition assay (CellTiterGlo), BaF3_HER2YVMA.
The next test has as its target BaF3_EGFRWT cells (Homo sapiens, UniProt P00533). Description: Cell growth inhibition assay (CellTiterGlo), BaF3_EGFRWT.
Setting [1] is: 3-day treatment, CellTiterGlo, read-out: Cell growth inhibition activity, HER2 WT.
[2] abbreviates: 3-day treatment, CellTiterGlo, read-out: Cell growth inhibition activity, HER2 - YVMA.
[3] abbreviates: 3-day treatment, CellTiterGlo, read-out: Cell growth inhibition activity, EGFR WT.
Where [4] appears, read: cell growth inhibition, 3 days treatment, read-out: HER2 WT IC50.
Setting [5] is: cell growth inhibition, 3 days treatment, read-out: HER2 - YVMA IC50.
Setting [6] is: cell growth inhibition, 80 ng/mL EGF, 3 days treatment, read-out: EGFR WT IC50.

This note sets out measurements from patent publication US20240132521A1, “COMPOUNDS AND METHODS FOR MODULATING HER2” (Iambic Therapeutics, Inc., priority 2022, published 2024).

Where two headings read alike, the source gives them in different places.

Sequence of BaF3_HER2YVMA cells (P04626 with tags, fused parts or gaps DUP772-775): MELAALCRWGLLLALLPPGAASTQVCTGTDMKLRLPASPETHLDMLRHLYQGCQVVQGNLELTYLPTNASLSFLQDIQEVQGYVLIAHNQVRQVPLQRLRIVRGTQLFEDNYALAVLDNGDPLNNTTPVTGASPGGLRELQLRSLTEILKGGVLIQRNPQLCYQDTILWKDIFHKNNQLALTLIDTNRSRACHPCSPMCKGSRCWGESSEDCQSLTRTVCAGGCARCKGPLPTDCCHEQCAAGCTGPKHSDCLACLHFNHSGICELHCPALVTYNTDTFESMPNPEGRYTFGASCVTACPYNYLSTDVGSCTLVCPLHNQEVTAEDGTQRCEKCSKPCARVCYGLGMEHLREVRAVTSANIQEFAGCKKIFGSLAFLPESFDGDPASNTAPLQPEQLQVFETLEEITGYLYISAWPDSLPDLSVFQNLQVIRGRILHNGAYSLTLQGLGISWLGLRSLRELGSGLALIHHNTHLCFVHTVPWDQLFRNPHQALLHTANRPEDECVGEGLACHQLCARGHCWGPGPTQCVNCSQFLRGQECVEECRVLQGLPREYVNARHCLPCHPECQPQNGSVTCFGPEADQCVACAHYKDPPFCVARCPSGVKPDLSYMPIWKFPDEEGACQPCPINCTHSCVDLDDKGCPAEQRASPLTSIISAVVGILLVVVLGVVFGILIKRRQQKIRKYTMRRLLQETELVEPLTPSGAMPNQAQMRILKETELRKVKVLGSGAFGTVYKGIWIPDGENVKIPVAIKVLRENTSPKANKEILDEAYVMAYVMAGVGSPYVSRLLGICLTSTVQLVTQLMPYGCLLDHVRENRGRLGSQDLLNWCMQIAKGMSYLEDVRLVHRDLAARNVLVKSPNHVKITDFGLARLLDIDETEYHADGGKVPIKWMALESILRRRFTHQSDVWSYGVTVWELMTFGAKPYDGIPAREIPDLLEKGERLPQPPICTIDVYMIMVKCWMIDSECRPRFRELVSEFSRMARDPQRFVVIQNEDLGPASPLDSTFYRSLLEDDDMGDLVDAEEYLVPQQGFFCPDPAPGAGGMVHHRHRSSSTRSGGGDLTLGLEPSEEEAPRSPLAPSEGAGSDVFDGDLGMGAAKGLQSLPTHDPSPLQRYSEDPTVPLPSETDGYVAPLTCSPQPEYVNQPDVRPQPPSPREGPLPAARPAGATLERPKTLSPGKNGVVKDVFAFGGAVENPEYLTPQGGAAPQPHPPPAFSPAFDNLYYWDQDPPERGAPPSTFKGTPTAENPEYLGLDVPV
Sequence of BaF3_HER2WT cells (P04626 whole entry, change not shown): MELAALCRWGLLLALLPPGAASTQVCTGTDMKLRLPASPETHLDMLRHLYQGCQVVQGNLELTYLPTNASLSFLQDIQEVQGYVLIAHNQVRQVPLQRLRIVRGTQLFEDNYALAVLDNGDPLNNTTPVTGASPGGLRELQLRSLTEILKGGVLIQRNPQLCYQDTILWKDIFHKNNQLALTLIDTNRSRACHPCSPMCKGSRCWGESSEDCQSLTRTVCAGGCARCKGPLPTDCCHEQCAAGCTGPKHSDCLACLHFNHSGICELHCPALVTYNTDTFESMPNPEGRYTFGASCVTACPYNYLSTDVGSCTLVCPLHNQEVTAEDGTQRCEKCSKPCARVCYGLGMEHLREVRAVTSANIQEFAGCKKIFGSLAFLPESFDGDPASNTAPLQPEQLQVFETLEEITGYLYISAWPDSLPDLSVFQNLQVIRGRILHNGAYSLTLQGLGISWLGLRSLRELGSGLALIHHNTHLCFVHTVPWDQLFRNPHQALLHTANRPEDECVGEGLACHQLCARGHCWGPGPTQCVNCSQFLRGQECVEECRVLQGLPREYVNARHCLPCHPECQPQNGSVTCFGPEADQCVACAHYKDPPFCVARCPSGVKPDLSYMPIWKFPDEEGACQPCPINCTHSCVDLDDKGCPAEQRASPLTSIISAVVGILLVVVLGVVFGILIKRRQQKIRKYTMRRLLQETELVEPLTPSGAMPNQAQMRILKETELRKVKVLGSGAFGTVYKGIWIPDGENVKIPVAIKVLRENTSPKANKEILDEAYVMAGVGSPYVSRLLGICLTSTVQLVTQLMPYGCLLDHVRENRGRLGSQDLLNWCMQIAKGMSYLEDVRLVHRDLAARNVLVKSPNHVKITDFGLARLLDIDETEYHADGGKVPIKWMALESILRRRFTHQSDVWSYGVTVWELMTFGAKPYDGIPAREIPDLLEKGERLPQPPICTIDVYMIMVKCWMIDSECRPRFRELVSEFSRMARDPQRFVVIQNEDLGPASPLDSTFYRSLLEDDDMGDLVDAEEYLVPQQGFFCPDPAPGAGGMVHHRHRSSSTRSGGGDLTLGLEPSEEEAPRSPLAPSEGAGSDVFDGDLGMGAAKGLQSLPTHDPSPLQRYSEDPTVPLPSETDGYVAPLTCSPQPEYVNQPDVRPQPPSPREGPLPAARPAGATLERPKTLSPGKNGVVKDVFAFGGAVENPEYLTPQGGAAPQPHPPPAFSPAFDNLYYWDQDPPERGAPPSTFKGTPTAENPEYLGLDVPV
Sequence of BaF3_EGFRWT cells (P00533 whole entry, change not shown): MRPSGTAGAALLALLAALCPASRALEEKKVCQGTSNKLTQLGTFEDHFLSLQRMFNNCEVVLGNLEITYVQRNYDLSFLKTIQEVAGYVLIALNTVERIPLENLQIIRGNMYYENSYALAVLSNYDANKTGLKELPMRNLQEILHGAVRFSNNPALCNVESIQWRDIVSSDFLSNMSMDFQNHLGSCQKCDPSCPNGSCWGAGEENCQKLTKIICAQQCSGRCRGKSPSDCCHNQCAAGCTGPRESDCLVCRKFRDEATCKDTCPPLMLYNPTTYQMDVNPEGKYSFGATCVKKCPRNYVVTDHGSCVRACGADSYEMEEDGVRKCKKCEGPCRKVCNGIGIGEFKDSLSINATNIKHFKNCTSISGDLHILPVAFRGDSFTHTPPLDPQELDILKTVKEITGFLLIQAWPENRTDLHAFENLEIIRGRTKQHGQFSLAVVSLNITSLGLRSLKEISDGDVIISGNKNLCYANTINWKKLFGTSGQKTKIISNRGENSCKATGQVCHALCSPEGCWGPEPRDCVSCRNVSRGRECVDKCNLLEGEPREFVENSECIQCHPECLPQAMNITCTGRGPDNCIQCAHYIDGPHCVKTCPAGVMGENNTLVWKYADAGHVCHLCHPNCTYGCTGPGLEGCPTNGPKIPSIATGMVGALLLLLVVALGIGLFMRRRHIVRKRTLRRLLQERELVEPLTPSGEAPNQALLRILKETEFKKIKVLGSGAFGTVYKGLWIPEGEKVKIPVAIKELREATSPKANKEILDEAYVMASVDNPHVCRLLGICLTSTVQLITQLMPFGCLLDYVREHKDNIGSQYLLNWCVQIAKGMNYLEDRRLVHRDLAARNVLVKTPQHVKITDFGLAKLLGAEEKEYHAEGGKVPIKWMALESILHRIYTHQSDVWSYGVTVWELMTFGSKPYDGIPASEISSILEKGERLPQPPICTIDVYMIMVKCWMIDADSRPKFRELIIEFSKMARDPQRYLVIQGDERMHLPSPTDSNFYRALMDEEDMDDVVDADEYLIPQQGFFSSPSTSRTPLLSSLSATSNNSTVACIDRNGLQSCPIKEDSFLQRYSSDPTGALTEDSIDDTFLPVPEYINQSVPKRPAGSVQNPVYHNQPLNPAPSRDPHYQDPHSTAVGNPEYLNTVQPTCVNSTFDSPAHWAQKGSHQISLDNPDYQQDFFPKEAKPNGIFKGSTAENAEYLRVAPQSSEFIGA

In the case of `C=C(F)C(=O)N1CC=C(c2ccn3ncnc(Nc4ccc(Oc5ccn6ncnc6c5)c(C)c4)c23)CC1` [Example 26, 1-(4-(4-((4-([1,2,4]triazolo[1,5-a]pyridin-7-yloxy)-3-methylphenyl)amino)pyrrolo[2,1-f][1,2,4]triazin-5-yl)-3,6-dihydropyridin-1(2H)-yl)-2-fluoroprop-2-en-1-one], the GI50 on BaF3_HER2WT cells (setting [1]) was 200 to 500 nM; at BaF3_HER2YVMA cells (setting [2]), 1500 to 5000 nM; at BaF3_EGFRWT cells (setting [3]), 1500 to 5000 nM.

Consider `Cc1cc(Nc2ncnn3ccc(C4CN(C(=O)/C=C/CN5CCOCC5)C4)c23)ccc1Oc1ccn2ncnc2c1` [Example 37, (E)-1-(3-(4-((4-([1,2,4]triazolo[1,5-a]pyridin-7-yloxy)-3-methylphenyl)amino)pyrrolo[2,1-f][1,2,4]triazin-5-yl)azetidin-1-yl)-4-morpholinobut-2-en-1-one], for which the GI50 was < 200 nM on BaF3_HER2WT cells (setting [1]), < 200 nM at BaF3_HER2YVMA cells (setting [2]) and 1500 to 5000 nM on BaF3_EGFRWT cells (setting [3]).

`C=CC(=O)N1C[C@H]2C[C@@H]1C[C@@H]2c1ccn2ncnc(Nc3ccc(Oc4ccn5ncnc5c4)c(C)c3)c12` [Example 141, 1-[(1S,4S,5S)-5-{4-[(3-methyl-4-{[1,2,4]triazolo[1,5-a]pyridin-7-yloxy}phenyl)amino]pyrrolo[2,1-f][1,2,4]triazin-5-yl}-2-azabicyclo[2.2.1]heptan-2-yl]prop-2-en-1-one]: the GI50 on BaF3_HER2WT cells (setting [1]) fell in the range of 200 to 500 nM; on BaF3_HER2YVMA cells (setting [2]), 500 to 1500 nM; on BaF3_EGFRWT cells (setting [3]), 1500 to 5000 nM.

As for `Cc1cc(Nc2ncnn3ccc(C4CCN(C(=O)/C=C/CO)CC4)c23)ccc1Oc1ccn2ncnc2c1` [Example 154, (E)-1-(4-(4-((4-([1,2,4]triazolo[1,5-a]pyridin-7-yloxy)-3-methylphenyl)amino)pyrrolo[2,1-f][1,2,4]triazin-5-yl)piperidin-1-yl)-4-hydroxybut-2-en-1-one], the GI50 was < 200 nM on BaF3_HER2WT cells (setting [1]), < 200 nM at BaF3_HER2YVMA cells (setting [2]) and 1500 to 5000 nM on BaF3_EGFRWT cells (setting [3]).

For `Cc1cc(Nc2ncnn3ccc(C4CC5CCC(C4)N5C(=O)/C=C/CN(C)C)c23)ccc1Oc1ccn2ncnc2c1` (single isomer, unassigned) [Examples 122 and 123, first eluting isomer, (E)-1-(−3-(4-((4-([1,2,4]triazolo[1,5-a]pyridin-7-yloxy)-3-methylphenyl)amino)pyrrolo[2,1-f][1,2,4]triazin-5-yl)-8-azabicyclo[3.2.1]octan-8-yl)-4-(dimethylamino)but-2-en-1-one], the GI50 at BaF3_HER2WT cells (setting [4]) was < 200 nM; at BaF3_HER2YVMA cells (setting [5]) it was < 200 nM; on BaF3_EGFRWT cells (setting [6]), 500 to 1500 nM.

Turning to `C=CC(=O)N(C)C1CCN(c2ccn3ncnc(Nc4ccc(Oc5ccn6ncnc6c5)c(C)c4)c23)CC1` [Example 74, N-(1-(4-((4-([1,2,4]triazolo[1,5-a]pyridin-7-yloxy)-3-methylphenyl)amino)pyrrolo[2,1-f][1,2,4]triazin-5-yl)piperidin-4-yl)-N-methylacrylamide], the figures for the GI50 on BaF3_HER2WT cells (setting [1]), at BaF3_HER2YVMA cells (setting [2]) and at BaF3_EGFRWT cells (setting [3]) were < 200 nM, 500 to 1500 nM and 1500 to 5000 nM, respectively.

In the case of `Cc1cc(Nc2ccn3ncnc(C4CC5CCC(C4)N5C(=O)/C=C/CN(C)C)c23)ccc1Oc1ccn2cnnc2c1` (stereo not drawn) [Example 33, (E)-1-(3-(5-((4-([1,2,4]triazolo[4,3-a]pyridin-7-yloxy)-3-methylphenyl)amino)pyrrolo[2,1-f][1,2,4]triazin-4-yl)-8-azabicyclo[3.2.1]octan-8-yl)-4-(dimethylamino)but-2-en-1-one acetate], the GI50 is < 200 nM at BaF3_HER2WT cells (setting [1]), 200 to 500 nM at BaF3_HER2YVMA cells (setting [2]) and 1500 to 5000 nM on BaF3_EGFRWT cells (setting [3]).

For the compound `CNC/C=C/C(=O)N1CCC(c2ccn3ncnc(Nc4ccc(Oc5ccn6ncnc6c5)c(C)c4)c23)CC1` [Example 177, (E)-1-(4-(4-((4-([1,2,4]triazolo[1,5-a]pyridin-7-yloxy)-3-methylphenyl)amino)pyrrolo[2,1-f][1,2,4]triazin-5-yl)piperidin-1-yl)-4-(methylamino)but-2-en-1-one], the results for the GI50 at BaF3_HER2WT cells (setting [1]), on BaF3_HER2YVMA cells (setting [2]) and at BaF3_EGFRWT cells (setting [3]) were < 200 nM, < 200 nM and 1500 to 5000 nM, respectively.

As for `C=CC(=O)N1CCN(c2ccn3ncnc(Nc4ccc(Oc5ccn6ncnc6c5)c(C)c4)c23)CC12CC2` [Example 75, 1-(7-(4-((4-([1,2,4]triazolo[1,5-a]pyridin-7-yloxy)-3-methylphenyl)amino)pyrrolo[2,1-f][1,2,4]triazin-5-yl)-4,7-diazaspiro[2.5]octan-4-yl)prop-2-en-1-one], the GI50 at BaF3_HER2WT cells (setting [1]) was < 200 nM; at BaF3_HER2YVMA cells (setting [2]), < 200 nM; at BaF3_EGFRWT cells (setting [3]), 500 to 1500 nM.

As to `C=CC(=O)N1CCN(c2ccn3ncnc(Nc4ccc(Oc5ccc6c(c5)ncn6C)c(C)c4)c23)CC1` [Example 121, 1-(4-(4-((3-methyl-4-((1-methyl-1H-benzo[d]imidazol-5-yl)oxy)phenyl)amino)pyrrolo[2,1-f][1,2,4]triazin-5-yl)piperazin-1-yl)prop-2-en-1-one], the GI50 was < 200 nM at BaF3_HER2WT cells (setting [1]), < 200 nM on BaF3_HER2YVMA cells (setting [2]) and 500 to 1500 nM on BaF3_EGFRWT cells (setting [3]).

Consider `C=CC(=O)NC1CCN(c2ccn3ncnc(Nc4ccc(Oc5ccn6ncnc6c5)c(C)c4)c23)CC1` [Example 78, N-(1-(4-((4-([1,2,4]triazolo[1,5-a]pyridin-7-yloxy)-3-methylphenyl)amino)pyrrolo[2,1-f][1,2,4]triazin-5-yl)piperidin-4-yl)acrylamide], for which the GI50 is < 200 nM at BaF3_HER2WT cells (setting [1]), 200 to 500 nM at BaF3_HER2YVMA cells (setting [2]) and 1500 to 5000 nM on BaF3_EGFRWT cells (setting [3]).

Regarding `Cc1cc(Nc2ncnn3ccc(C4CN(C(=O)/C=C/CN5CC(F)C5)C4)c23)ccc1Oc1ccc2c(c1)ncn2C` [Example 161, (E)-4-(3-fluoroazetidin-1-yl)-1-(3-(4-((3-methyl-4-((1-methyl-1H-benzo[d]imidazol-5-yl)oxy)phenyl)amino)pyrrolo[2,1-f][1,2,4]triazin-5-yl)azetidin-1-yl)but-2-en-1-one], the GI50 on BaF3_HER2WT cells (setting [1]) was < 200 nM; at BaF3_HER2YVMA cells (setting [2]), < 200 nM; at BaF3_EGFRWT cells (setting [3]), 1500 to 5000 nM.

Turning to `Cc1cc(Nc2ncnn3ccc(N4CC5CCC(C4)N5C(=O)/C=C/CN(C)C)c23)ccc1Oc1ccn2ncnc2c1` [Example 47, (E)-1-(3-(4-((4-([1,2,4]triazolo[1,5-a]pyridin-7-yloxy)-3-methylphenyl)amino)pyrrolo[2,1-f][1,2,4]triazin-5-yl)-3,8-diazabicyclo[3.2.1]octan-8-yl)-4-(dimethylamino)but-2-en-1-one], the values for the GI50 at BaF3_HER2WT cells (setting [1]), on BaF3_HER2YVMA cells (setting [2]) and at BaF3_EGFRWT cells (setting [3]) were < 200 nM, < 200 nM and 1500 to 5000 nM, respectively.

`C=CC(=O)NC1CCN(c2ccn3ncnc(Nc4ccc(Oc5ccn6ncnc6c5)c(C)c4)c23)C1` (stereo not drawn) [Example 79, N-(1-(4-((4-([1,2,4]triazolo[1,5-a]pyridin-7-yloxy)-3-methylphenyl)amino)pyrrolo[2,1-f][1,2,4]triazin-5-yl)pyrrolidin-3-yl)acrylamide]: the GI50 on BaF3_HER2WT cells (setting [1]) was < 200 nM; at BaF3_HER2YVMA cells (setting [2]), 200 to 500 nM; at BaF3_EGFRWT cells (setting [3]) it was 1500 to 5000 nM.

As for `Cc1cc(Nc2ncnn3ccc(C4(F)CCN(C(=O)/C=C/CN(C)C)CC4)c23)ccc1Oc1ccn2ncnc2c1` [Example 175, (E)-1-(4-(4-((4-([1,2,4]triazolo[1,5-a]pyridin-7-yloxy)-3-methylphenyl)amino)pyrrolo[2,1-f][1,2,4]triazin-5-yl)-4-fluoropiperidin-1-yl)-4-(dimethylamino)but-2-en-1-one], the GI50 on BaF3_HER2WT cells (setting [1]), at BaF3_HER2YVMA cells (setting [2]) and at BaF3_EGFRWT cells (setting [3]) was 1500 to 5000 nM in each case.

With `Cc1cc(Nc2ncnn3ccc(C4CN(C(=O)/C=C\C56CCCN5CCC6)C4)c23)ccc1Oc1ccn2ncnc2c1` [Example 160, (Z)-1-(3-(4-((4-([1,2,4]triazolo[1,5-a]pyridin-7-yloxy)-3-methylphenyl)amino)pyrrolo[2,1-f][1,2,4]triazin-5-yl)azetidin-1-yl)-3-(tetrahydro-1H-pyrrolizin-7a(5H)-yl)prop-2-en-1-one], the GI50 on BaF3_HER2WT cells (setting [1]) is < 200 nM; on BaF3_HER2YVMA cells (setting [2]), < 200 nM; at BaF3_EGFRWT cells (setting [3]) it was 1500 to 5000 nM.

`Cc1cc(Nc2ncnn3ccc(C4CC5CCC(C4)N5C(=O)/C=C/CN(C)C)c23)ccc1Oc1ccn2ncnc2c1` (single isomer, unassigned) [Examples 122 and 123, second eluting isomer, (E)-1-(3-(4-((4-([1,2,4]triazolo[1,5-a]pyridin-7-yloxy)-3-methylphenyl)amino)pyrrolo[2,1-f][1,2,4]triazin-5-yl)-8-azabicyclo[3.2.1]octan-8-yl)-4-(dimethylamino)but-2-en-1-one]: the GI50 on BaF3_HER2WT cells (setting [4]) was < 200 nM; on BaF3_HER2YVMA cells (setting [5]), 200 to 500 nM; on BaF3_EGFRWT cells (setting [6]), 1500 to 5000 nM.

Turning to `CNC/C=C/C(=O)N1CC(c2ccn3ncnc(Nc4ccc(Oc5ccn6ncnc6c5)c(C)c4)c23)C1` [Example 151, (E)-1-(3-(4-((4-([1,2,4]triazolo[1,5-a]pyridin-7-yloxy)-3-methylphenyl)amino)pyrrolo[2,1-f][1,2,4]triazin-5-yl)azetidin-1-yl)-4-(methylamino)but-2-en-1-one], the figures for the GI50 at BaF3_HER2WT cells (setting [1]), on BaF3_HER2YVMA cells (setting [2]) and on BaF3_EGFRWT cells (setting [3]) were < 200 nM, < 200 nM and 1500 to 5000 nM, respectively.

Regarding `Cc1cc(Nc2ncnn3ccc(C4CCCN(C(=O)C(F)Cl)CC4)c23)ccc1Oc1ccn2ncnc2c1` (single isomer, unassigned) [Examples 145, 146, 147 and 148, second eluting isomer, 1-(4-(4-((4-([1,2,4]triazolo[1,5-a]pyridin-7-yloxy)-3-methylphenyl)amino)pyrrolo[2,1-f][1,2,4]triazin-5-yl)azepan-1-yl)-2-chloro-2-fluoroethan-1-one], the GI50 on BaF3_HER2WT cells (setting [4]) is < 200 nM; at BaF3_HER2YVMA cells (setting [5]), < 200 nM; at BaF3_EGFRWT cells (setting [6]) it was 500 to 1500 nM.
